Test results as given in patent US8163737B2 (Vertex Pharmaceuticals Incorporated, priority 2006, dated 2012).
pIC50, pKi: −log10 of the molar value.

Legend:
endogenous CGRP receptor = endogenous CGRP receptor (Homo sapiens, UniProt O60894+Q16602); assay: CGRP functional antagonism using SK-N-MC-BLA (4C10), β-lactamase transcriptional reporter assay; assay type: cell-based; details: SK-N-MC (4C10) cells, inhibition of β-lactamase expression in the presence of 200 pM CGRP
[1] = biological target: T1, CGRP receptor (SK-N-MC membrane) (Homo sapiens, UniProt O60894+Q16602); assay: I125-CGRP binding displacement assay on purified SK-N-MC membrane
T1 construct: Purified SK-N-MC membrane was purchased from Perkin Elmer; purchased Perkin Elmer; host or cells: SK-N-MC membrane
In short: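 Human SK-N-MC membranes incubated with compounds and I125-CGRP for 2 h at room temperature in 25 mM Tris-HCl pH 7.4, 5 mM MgCl2, 0.1% BSA, 0.05% Tween, then filtered and counted. Nonspecific binding defined with 1 uM unlabelled CGRP; percent displacement fitted to curves.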

T1 sequence (Q16602 23-461): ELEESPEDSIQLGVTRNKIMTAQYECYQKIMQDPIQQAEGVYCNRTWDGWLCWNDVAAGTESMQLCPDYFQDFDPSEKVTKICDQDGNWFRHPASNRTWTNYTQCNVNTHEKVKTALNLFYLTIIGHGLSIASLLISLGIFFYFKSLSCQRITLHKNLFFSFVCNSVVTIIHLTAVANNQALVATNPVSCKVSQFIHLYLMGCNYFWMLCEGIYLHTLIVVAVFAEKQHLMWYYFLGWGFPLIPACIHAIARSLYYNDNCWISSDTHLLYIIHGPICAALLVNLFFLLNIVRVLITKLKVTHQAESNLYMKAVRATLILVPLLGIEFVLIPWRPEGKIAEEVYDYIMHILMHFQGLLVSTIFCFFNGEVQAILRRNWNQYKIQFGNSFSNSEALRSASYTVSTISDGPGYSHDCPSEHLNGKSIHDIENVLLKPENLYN
T1 sequence (O60894 27-148): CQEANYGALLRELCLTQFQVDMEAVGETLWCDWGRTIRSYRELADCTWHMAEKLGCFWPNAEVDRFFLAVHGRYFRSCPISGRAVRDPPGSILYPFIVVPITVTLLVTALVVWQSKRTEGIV
Sequence of endogenous CGRP receptor (Q16602 23-461): as the sequence (Q16602 23-461) above
Sequence of endogenous CGRP receptor (O60894 27-148): as the sequence (O60894 27-148) above

Row | SMILES | pIC50 (endogenous CGRP receptor) | pKi [1]
1 | CC(C)(C)CCN1C(=O)[C@H](CC(=O)N2CCC(N3CCc4ccccc4NC3=O)CC2)S[C@@H]1c1ccccc1C1CCNCC1 [Compound 501, 4,5-Dihydro-3-(1-(2-((2R,5S)-3-(3,3-dimethylbutyl)-4-oxo-2-(2-(piperidin-4-yl)phenyl)thiazolidin-5-yl)acetyl)piperidin-4-yl)-1H-benzo[d][1,3]diazepin-2(3H)-one] | > 6.00 | > 6.00
2 | CC(C)(C)CCN1C(=O)[C@H](CC(=O)N2CCC(N3CCc4ccccc4NC3=O)CC2)SC1c1ccn(C2CCN(C(=O)OC(C)(C)C)CC2)n1 (stereo partly drawn) [Compound 490] | < 5.30 | > 6.00
3 | O=C(CC1SC(c2c(F)cccc2F)N(CC2CCCCC2)C1=O)N1CCC(N2CCc3ccccc3NC2=O)CC1 (stereo not drawn) [Compound 16] | > 6.00 | > 6.00
4 | CC(C)(C)CCN1C(=O)[C@H](CC(=O)N2CCC(n3c(=O)[nH]c4ncccc43)CC2)SC1c1cccc(F)c1N1CCN(C(=O)OC(C)(C)C)CC1 (stereo partly drawn) [Compound 549] | 5.30 to 6.00 | > 6.00
5 | CC(C)CCN1C(=O)[C@H](CC(=O)N2CCC(N3Cc4ccccc4NC3=O)CC2)SC1c1ccccn1 (stereo partly drawn) [Compound 176] | 5.30 to 6.00 | > 6.00
6 | CC(C)CCN1C(=O)C(CC(=O)N2CCC(N3CCc4ccccc4NC3=O)CC2)SC1c1ccccc1N1CCC(O)CC1 (stereo not drawn) [Compound 120] | > 6.00 | > 6.00
7 | CN1CCN(c2cc(F)ccc2C2SC(CC(=O)N3CCC(n4cc(-c5ccccc5)[nH]c4=O)CC3)C(=O)N2CCC(C)(C)C)CC1 (stereo not drawn) [Compound 363] | > 6.00 | > 6.00
8 | CC(C)N1C(=O)C(CC(=O)N2CCC(N3Cc4ccccc4NC3=O)CC2)SC1c1ccccc1 (stereo not drawn) [Compound 255, 3,4-Dihydro-3-(1-(2-(3-isopropyl-4-oxo-2-phenylthiazolidin-5-yl)acetyl)piperidin-4-yl)quinazolin-2(1H)-one] | 5.30 to 6.00 | > 6.00
9 | O=C(CC1SC(c2ccccc2)N(CC(F)(F)F)C1=O)N1CCC(N2Cc3ccccc3NC2=O)CC1 (stereo not drawn) [Compound 109] | 5.30 to 6.00 | > 6.00
10 | CC(C)(C)CCN1C(=O)C(CC(=O)N2CCC(N3Cc4ccccc4NC3=O)CC2)SC1c1ccccc1 (stereo not drawn) [Compound 93] | > 6.00 | > 6.00
11 | CC(C)(C)CCN1C(=O)C(CC(=O)N2CCC(N3Cc4ccccc4NC3=O)CC2)SC1c1ccccc1N1CCN(CCO)CC1 (stereo not drawn) [Compound 371] | > 6.00 | > 6.00
12 | CN1CCN(c2cccc(F)c2C2SC(CC(=O)N3CCC(n4c(=O)[nH]c5ccccc54)CC3)C(=O)N2CCC(C)(C)C)CC1 (stereo not drawn) [Compound 348] | 5.30 to 6.00 | < 5.30
13 | CC(C)(C)CCN1C(=O)C(CC(=O)N2CCC(N3Cc4ccccc4NC3=O)CC2)SC1c1ccccc1-n1ccnc1 (stereo not drawn) [Compound 60] | > 6.00 | > 6.00
14 | Cc1ccccc1C1SC(CC(=O)N2CCC(N3Cc4ccccc4NC3=O)CC2)C(=O)N1CCC(C)C (stereo not drawn) [Compound 172] | > 6.00 | > 6.00
15 | CC(C)CCN1C(=O)C(CC(=O)N2CCC(N3CCc4ccccc4NC3=O)CC2)SC1c1ccccc1F (stereo not drawn) [Compound 149] | > 6.00 | > 6.00
16 | CC(C)(C)CCN1C(=O)C(CC(=O)N2CCC(N3CCc4ccccc4NC3=O)CC2)SC1c1cccc(F)c1N1CCN(C2CC2)CC1 (stereo not drawn) [Compound 389] | > 6.00 | > 6.00
17 | CN(C)C1CCN(c2c(F)cccc2[C@@H]2S[C@@H](CC(=O)N3CCC(n4c(=O)[nH]c5ncccc54)CC3)C(=O)N2CCC(C)(C)C)C1 (stereo partly drawn) [Compound 456] | 5.30 to 6.00 | > 6.00
18 | CC(C)(C)CCN1C(=O)[C@H](CC(=O)N2CCC(n3c(=O)[nH]c4ncccc43)CC2)SC1c1cccc(F)c1N1CCC(F)(F)C1 (stereo partly drawn) [Compound 482] | 5.30 to 6.00 | > 6.00

Row | SMILES | pIC50 (endogenous CGRP receptor) | pKi [1]
19 | CN1CCN(c2ccccc2[C@H]2S[C@](C)(CC(=O)N3CCC(n4c(=O)[nH]c5ncccc54)CC3)C(=O)N2CCC(C)(C)C)CC1 [Compound 380] | > 6.00 | > 6.00
20 | CC(C)CCN1C(=O)C(CC(=O)N2CCC(N3CCc4ccccc4NC3=O)CC2)SC1c1c(F)cccc1C(F)(F)F (stereo not drawn) [Compound 194] | > 6.00 | > 6.00
21 | CCCCN1C(=O)C(CC(=O)N2CCC(N3Cc4ccccc4NC3=O)CC2)SC1c1ccccc1 (stereo not drawn) [Compound 107] | > 6.00 | > 6.00
22 | CC(C)CN1CCC(c2ncc(C3S[C@@H](CC(=O)N4CCC(N5CCc6ccccc6NC5=O)CC4)C(=O)N3CCC(C)(C)C)s2)CC1 (stereo partly drawn) [Compound 498, (5S)-3-(3,3-Dimethylbutyl)-2-(2-(1-isobutylpiperidin-4-yl)thiazol-5-yl)-5-(2-oxo-2-(4-(2-oxo-4,5-dihydro-1H-benzo[d][1,3]diazepin-3(2H)-yl)piperidin-1-yl)ethyl)thiazolidin-4-one] | > 6.00 | > 6.00
23 | CC(C)(C)N1CCN(c2c(F)cccc2C2S[C@@H](CC(=O)N3CCC(n4c(=O)[nH]c5ncccc54)CC3)C(=O)N2CC2CCOCC2)CC1 (stereo partly drawn) [Compound 525] | > 6.00 | > 6.00
24 | CCCCN1C(=O)[C@H](CC(=O)N2CCC(N3CCc4ccccc4NC3=O)CC2)SC1c1cccc(F)c1N1CCN(C(C)(C)C)CC1 (stereo partly drawn) [Compound 521] | > 6.00 | > 6.00
25 | CC(C)(C)N1CCN(c2c(F)cccc2C2S[C@@H](CC(=O)N3CCC(N4CCc5ccccc5NC4=O)CC3)C(=O)N2Cc2ccccc2)CC1 (stereo partly drawn) [Compound 539] | > 6.00 | > 6.00
26 | CC(C)(C)CCN1C(=O)[C@H](CC(=O)N2CCC(N3CCc4ccccc4NC3=O)CC2)SC1c1cccc(F)c1N1CCC(N2CCCCC2)CC1 (stereo partly drawn) [Compound 550] | > 6.00 | > 6.00
27 | COC(=O)[C@@H](CC(C)C)N1C(=O)C(CC(=O)N2CCC(N3CCc4ccccc4NC3=O)CC2)SC1c1ccccc1 (stereo partly drawn) [Compound 225] | > 6.00 | > 6.00
28 | CN1CCN(c2ccccc2[C@@H]2SC(CC(=O)N3CCCCC3)C(=O)N2CCC(C)(C)C)CC1 (stereo partly drawn) [Compound 105] | < 5.30 | < 5.30
29 | CN1CCN(c2ccc(F)cc2[C@@H]2S[C@@H](CC(=O)N3CCC(n4c(=O)[nH]c5ncccc54)CC3)C(=O)N2CCC(C)(C)C)CC1 [Compound 394] | > 6.00 | > 6.00
30 | CC(C)CCN1C(=O)C(CC(=O)N2CCC(N3Cc4ccccc4NC3=O)CC2)[S+]([O-])C1c1ccc(F)cc1F (stereo not drawn) [Compound 66] | > 6.00 | > 6.00
31 | CCCCN1CCN(c2ccccc2C2SC(CC(=O)N3CCC(N4CCc5ccccc5NC4=O)CC3)C(=O)N2CCC(C)(C)C)CC1 (stereo not drawn) [Compound 365] | > 6.00 | > 6.00
32 | CN(C)c1ccccc1C1SC(CC(=O)N2CCC(N3Cc4ccccc4NC3=O)CC2)C(=O)N1CCC(C)(C)C (stereo not drawn) [Compound 198] | > 6.00 | > 6.00
33 | O=C(CC1SC(c2ccccc2)N(c2ccccc2)C1=O)N1CCC(N2Cc3ccccc3NC2=O)CC1 (stereo not drawn) [Compound 187] | 5.30 to 6.00 | > 6.00
34 | CN1CCN(c2ccccc2C2SC(CC(=O)N3CCC4(CC3)CNC(=O)c3ccccc3O4)C(=O)N2CCC(C)(C)C)CC1 (stereo not drawn) [Compound 330] | 5.30 to 6.00 | > 6.00
35 | Cc1cc(C2SC(CC(=O)N3CCC(N4Cc5ccccc5NC4=O)CC3)C(=O)N2CCC(C)C)cc2cn[nH]c12 (stereo not drawn) [Compound 282] | > 6.00 | > 6.00
36 | CC(C)CCN1C(=O)C(CC(=O)N2CCC(N3Cc4ccccc4NC3=O)CC2)SC1c1cccc(OC(F)(F)C(F)F)c1 (stereo not drawn) [Compound 240] | 5.30 to 6.00 | > 6.00
